Structures can show the parent of a compound that is named as a salt.
Key:
F-actin = test: inhibition of F-actin formation (rhodamine phalloidin staining) in TGF-β1-treated MRC-5 cells; type: cell-based, human; settings: compound 10 µM, TGF-β1 (5 ng/mL), 72 hours, FIG. 1
Method: In this experimental example, 2 hours after human lung-derived fibroblasts (MRC-5 cells) were treated with Compound 41 (10 µM) or Compound 51 (10 µM) according to the present invention, or DMSO, dissolved in 0.5% FBS-containing serum, TGF-β1 (5 ng/mL) was treated to induce fibrosis. After 72 hours, the cells were immobilized with a 2% paraformaldehyde solution for 10 minutes, and to impart cell membrane permeability, a 0.1% Triton X-100 solution was treated for 10 minutes, and a 1% bovine serum albumin (BSA) solution was treated to prevent non-specific binding. For immunostaining, anti-GAPDH (BIO-RAD) was first treated as a primary antibody, and Alexa Fluor™ Plus 488 for GAPDH labeling was used as a secondary antibody. For staining of an actin cytoskeleton, particularly, F-actin, rhodamine phalloidin (Cytoskeleton) was used to confirm the increase and decrease in F-actin caused by the compounds. The immunohistochemical experimental results were confirmed with a STELLARIS 5 confocal microscope (Leica), F-actin stained with rhodamine phalloidin was standardized with GAPDH labeled with Alexa Fluor™ Plus 488 for quantification.

ACTA2 mRNA [1] = test: qRT-PCR of ACTA2 mRNA in TGF-β1-treated human renal fibroblasts; type: cell-based; settings: human renal fibroblasts (HRFs); 10 and 50 µM; TGF-β1 (5 ng/mL); 48 hours; FIG. 3
Method: (§1) Here, to confirm the degree of fibrosis, ACTA2 or COL1A1 mRNA, which can express α-SMA or collagen type 1, was used as an indicator. α-SMA is a marker for activated myofibroblasts, which are the main effector cells of fibrosis, and myofibroblasts with increased α-SMA expression are known to cause fibrosis by producing a fibrotic protein such as collagen type 1.
(§2) Specifically, human renal fibroblasts (HRFs) were seeded, and cultured for 24 hours under a nutrient-deficient condition for effective cell activation. Afterward, the cells were treated with the compounds (Compounds 51 and 41) according to the present invention, together with TGF-β1 (5 ng/mL) to induce fibrosis, at 10 and 50 µM for 48 hours, respectively, and then cultured to extract RNA therefrom. The RNA was used to perform qRT-PCR. From the experimental results, the mRNA expression levels of ACTA2 and COL1A1 were confirmed, thereby verifying the therapeutic effects of the compounds.

ACTA2 mRNA [2] = test: qRT-PCR of ACTA2 mRNA in TGF-β1-treated human hepatic stellate cells; type: cell-based; settings: human hepatic stellate cells (HHSCs); 10 and 50 µM; TGF-β1 (5 ng/mL); 48 hours; FIG. 2
Method: as §1, with “mRNA that” for “mRNA, which”, “1” for “1,”, “of” for “for”, “COL1A1.” for “collagen type 1.”
as §2, with “hepatic stellate cells (HHSCs)” for “renal fibroblasts (HRFs)”

α-SMA = test: in vitro α-SMA expression inhibition (immunostaining, confocal microscopy) in TGF-β1-treated MRC-5 cells; type: cell-based, human; settings: TGF-β1 (5 ng/mL), 72 hours, standardized using GAPDH
From the text: When scars are generated in tissue, fibroblasts undergo fibroblast-to-myofibroblast transition (FMT), and the resulting myofibroblasts produce the extracellular matrix, leading to tissue fibrosis. α-SMA is a representative biomarker of myofibroblasts, and its expression greatly increases as FMT progresses. Accordingly, through the evaluation of α-SMA expression inhibitory activity, the efficacy of the compounds in inhibiting fibrosis may be evaluated. Therefore, the inhibitory activity of the compounds of the present invention on α-SMA expression was evaluated in cells. To more accurately evaluate the inhibition of α-SMA expression, IC50 values were determined by treating human lung-derived fibroblasts (MRC-5 cells) with the compounds of the present invention in a concentration-dependent manner.
Specifically, 2 hours after the MRC-5 cells were treated with DMSO or compounds dissolved in serum containing 0.5% fetal bovine serum (FBS) in a concentration-dependent manner, fibrosis was induced by treatment with TGF-β1 (5 ng/mL). After 72 hours, the cells were immobilized with a 2% paraformaldehyde solution for 10 minutes, and to impart cell membrane permeability, a 0.1% Triton X-100 solution was treated for 10 minutes, and a 1% bovine serum albumin (BSA) solution was treated to prevent non-specific binding. For immunostaining, anti-GAPDH (BIO-RAD) was first treated as a primary antibody, and Alexa Fluor™ Plus 555 for GAPDH labeling was used as a secondary antibody. For α-SMA staining, an FITC fluorescence-tagged α-SMA primary antibody was used, and thus the increase and decrease in α-SMA caused by the compounds were evaluated. The immunohistochemical experimental results were confirmed with a STELLARIS 5 confocal microscope (Leica), and FITC-stained α-SMA was standardized using GAPDH labeled with Alexa FluorTM Plus 555 for quantification. The IC50 of the compounds according to the present invention was calculated through statistical analysis (linear mixed effects model). […]

COL1A1 mRNA = test: qRT-PCR of COL1A1 mRNA in TGF-β1-treated human renal fibroblasts; type: cell-based; settings: human renal fibroblasts (HRFs); 10 and 50 µM; TGF-β1 (5 ng/mL); 48 hours; FIG. 3
Method: as §1, §2

**Q.** How did the “intracellular F-actin formation” value (F-actin) turn out when N[C@H]1CCN(C(=O)N2CCN(Cc3ccc(F)cc3)c3ccccc32)C1.O=C(O)/C=C/C(=O)O [Compound 41, (S)-(3-aminopyrrolidin-1-yl)(4-(4-fluorobenzyl)-3,4-dihydroquinoxaline-1(2H)-yl)methanone fumaric acid salt] was run?
**A.** reduced to a level similar to that of the group not treated with TGF-β1

**Q.** And the “ACTA2 mRNA expression” value (ACTA2 mRNA [1])?
**A.** effectively inhibit the mRNA expression

**Q.** What about the “ACTA2 mRNA expression” value (ACTA2 mRNA [2]) of the same molecule?
**A.** effectively inhibit the mRNA expression

**Q.** And the IC50 (α-SMA; Homo sapiens)?
**A.** < 1 µM

**Q.** What about the “COL1A1 mRNA expression” value (COL1A1 mRNA) of the same molecule?
**A.** effectively inhibit the mRNA expression

**Q.** Which results are given for CC(C)CN[C@H]1CCN(C(=O)N2CCN(Cc3ccccn3)c3ccccc32)C1.O=C(O)/C=C/C(=O)O [Compound 51, (S)-(3-(isobutylamino)pyrrolidin-1-yl)(4-(pyridin-2-ylmethyl)-3,4-dihydroquinoxaline-1(2H)-yl)methanone fumaric acid salt]?
**A.** intracellular F-actin formation (F-actin): reduced to a level similar to that of the group not treated with TGF-β1; ACTA2 mRNA expression (ACTA2 mRNA [1]): effectively inhibit the mRNA expression; ACTA2 mRNA expression (ACTA2 mRNA [2]): effectively inhibit the mRNA expression; IC50 (α-SMA; Homo sapiens): < 1 µM; COL1A1 mRNA expression (COL1A1 mRNA): effectively inhibit the mRNA expression

**Q.** Which IC50 (α-SMA; Homo sapiens) does the source give for CN1CC[C@@H](COC(=O)N2CCN(Cc3ccccn3)c3ccccc32)C1 [Compound 64, (R)-(1-methylpyrrolidin-3-yl)methyl-4-(pyridin-2-ylmethyl)-3,4-dihydroquinoxaline-1(2H)-carboxylate] here?
**A.** < 1 µM

**Q.** How did the IC50 (α-SMA; Homo sapiens) turn out when CN1CCC(COC(=O)N2CCN(Cc3ccccn3)c3ccccc32)CC1 [Compound 65, (1-methylpiperidin-4-yl)methyl-4-(pyridin-2-ylmethyl)-3,4-dihydroquinoxaline-1(2H)-carboxylate] was run?
**A.** 10 to 30 µM

**Q.** O=C(NCC1CCNCC1)N1CCN(Cc2ccc(F)cn2)c2ccccc21 [Compound 66, 4-((5-fluoropyridine-2-yl)methyl)-N-(piperidin-4-ylmethyl)-3,4-dihydroquinoxaline-1(2H)-carboxamide oxalic acid salt] was tested. Which IC50 (α-SMA; Homo sapiens) did it give?
**A.** < 1 µM

**Q.** Which IC50 (α-SMA; Homo sapiens) does the source give for CN1CCC(CNC(=O)N2CCN(Cc3ccc(F)cn3)c3ccccc32)CC1 [Compound 67, 4-((5-fluoropyridin-2-yl)methyl)-N-((1-methylpiperidin-4-yl)methyl)-3,4-dihydroquinoxaline-1(2H)-carboxamide] here?
**A.** ≤ 30 µM

**Q.** With O=C(NCC1CCNCC1)N1CCN(Cc2ncccc2F)c2ccccc21 [Compound 68, 4-((3-fluoropyridin-2-yl)methyl)-N-(piperidin-4-ylmethyl)-3,4-dihydroquinoxaline-1(2H)-carboxamide] as the molecule, how does the IC50 (α-SMA; Homo sapiens) read?
**A.** ≤ 30 µM

**Q.** CN1CCC(CNC(=O)N2CCN(Cc3ncccc3F)c3ccccc32)CC1 [Compound 69, 4-((3-fluoropyridin-2-yl)methyl)-N-((1-methylpiperidin-4-yl)methyl)-3,4-dihydroquinoxaline-1(2H)-carboxamide] was tested. Which IC50 (α-SMA; Homo sapiens) did it give?
**A.** 1 to 10 µM

**Q.** With CN1CCN(C(=O)N2CCN(C3CCCCC3)c3ccccc32)CC1 [Compound 70, (4-cyclohexyl-3,4-dihydroquinoxaline-1(2H)-yl)(4-methylpiperazin-1-yl)methanone] as the molecule, how does the IC50 (α-SMA; Homo sapiens) read?
**A.** 1 to 10 µM

**Q.** With O=C(N1CCCCC1)N1CCN(C2CCCCC2)c2ccccc21 [Compound 71] as the molecule, how does the IC50 (α-SMA; Homo sapiens) read?
**A.** 1 to 10 µM

**Q.** How did the IC50 (α-SMA; Homo sapiens) turn out when CC(C)CC(=O)N1CCN(C(=O)NCC2CCNCC2)c2ccccc21 [Compound 77, 4-(3-Methylbutanoyl)-N-(piperidin-4-ylmethyl)-3,4-dihydroquinoxaline-1(2H)-carboxamide] was run?
**A.** ≤ 30 µM

**Q.** With CC(C)(C)CC(=O)N1CCN(C(=O)N2CCNCC2)c2ccccc21 [Compound 78, 3,3-dimethyl-1-(4-(piperazine-1-carbonyl)-3,4-dihydroquinoxaline-1(2H)-yl)butan-1-one] as the molecule, how does the IC50 (α-SMA; Homo sapiens) read?
**A.** ≤ 30 µM

**Q.** With CC(C)(C)CC(=O)N1CCN(C(=O)NCC2CCNCC2)c2ccccc21 [Compound 79, 4-(3,3-dimethylbutanoyl)-N-(piperidin-4-ylmethyl)-3,4-dihydroquinoxaline-1(2H)-carboxamide] as the molecule, how does the IC50 (α-SMA; Homo sapiens) read?
**A.** ≤ 30 µM

**Q.** For “(S)-N-(1-isobutylpyrrolidin-3-yl)-4-(pyrazin-2-ylmethyl)-3,4-dihydroquinoxaline-1(2H)-carboxamide [Compound 44]”, which IC50 (α-SMA) is on record?
**A.** ≤ 30 µM
